From ChEMBL document CHEMBL4152181, “Resolvins as proresolving inflammatory mediators in cardiovascular disease” (Eur J Med Chem, 2018)

Experiment: Half life in air at 10 to 20 ug by HPLC analysis
Format: physicochemical

In order of rising half-life:
1. CC[C@@H](O)/C=C/C=C\C/C=C\C/C=C\C=C\[C@@H](O)CCCC(=O)O  1.5 h
2. CC[C@@H](O)/C=C/C=C\C[C@@H]1C[C@@H]1C/C=C\C=C\[C@@H](O)CCCC(=O)O  35 h
3. CC[C@@H](O)/C=C/C=C\C[C@H]1C[C@H]1C/C=C\C=C\[C@@H](O)CCCC(=O)O  35 h
